Consider eight molecules from ChEMBL document CHEMBL1817609, “SAR studies of 4-pyridyl heterocyclic anilines that selectively induce autophagic cell death in von Hippel-Lindau-deficient renal cell carcinoma cells” (Bioorg Med Chem, 2011).

Active and inactive are the calls of the source. No cut-off for these calls is given here.

Experiment [1] is described as follows: Growth inhibition of human RCC4 cells after 4 days by XTT assay. The class given is functional, cell-based. The conditions noted are these: RCC4, 96 h.
Experiment [2] can be described thus: Selectivity ratio IC50 for human RCC4/VHL cells to IC50 for human RCC4 cells. The format is functional.
The subject of experiment [3] is RCC4. Kind of experiment: Induction of autophagy in human RCC4 cells assessed as formation of intracytoplasmic vacuoles at 5 uM after 24 hrs by phase contrast microscopy. The format is functional, cell-based.
Experiment [4] in a line: Growth inhibition of human RCC4/VHL cells after 4 days by XTT assay. The class given is functional, cell-based. The conditions noted are these: 96 h. For orientation: Formazan colour is commonly taken as a measure of viable cells.

Consider `Cc1cccc(Nc2nc(-c3ccnc(-c4cnn(Cc5ccccc5)c4)c3)cs2)c1`, for which the IC50 in experiment [1] (read-out: IC50) was 2.2 µM; in experiment [1] (read-out: pIC50 (converted)) it was 2.24 µM; in experiment [4], 66.1 µM. The “Ratio IC50” value in experiment [2] is recorded as 30. Also, the outcome in experiment [3] was Active.

Regarding `Cc1cccc(Nc2nc(-c3ccncc3OCCCN(C)C)cs2)c1`, the IC50 in experiment [1] (read-out: IC50) was 2.7 µM; in experiment [1] (read-out: pIC50 (converted)), 2.75 µM; in experiment [4], 20.2 µM. Further, the “Ratio IC50” value in experiment [2] turned out to be 7.4. Also, the outcome in experiment [3] was Active.

Regarding `Cc1cccc(Nc2nc(-c3ccnc(-c4cc[nH]n4)c3)cs2)c1`, the figures for the IC50 in experiment [1] (read-out: IC50), in experiment [1] (read-out: pIC50 (converted)) and in experiment [4] were 0.48 µM, 0.49 µM and 20 µM, respectively. In experiment [3], the result was Active.

As for `Cc1cccc(Nc2nc(-c3ccncc3)cs2)c1`, the IC50 in experiment [1] (read-out: IC50) was 2.1 µM; in experiment [1] (read-out: pIC50 (converted)), 2.14 µM; in experiment [4], 40 µM. Besides, the “Ratio IC50” value in experiment [2] worked out at 19. Moreover, the result in experiment [3] was Active.

Turning to `Cc1cccc(Nc2nc(-c3ccncc3C#CCN3CCOCC3)cs2)c1`, the figures for the IC50 in experiment [1] (read-out: IC50), in experiment [1] (read-out: pIC50 (converted)) and in experiment [4] were 0.57 µM, 0.575 µM and 2.3 µM, respectively. The “Ratio IC50” value in experiment [2] was 4. Further, the outcome in experiment [3] was Active.

Consider `Cc1cccc(Nc2nc(-c3ccnc(N4CCN(C)CC4)c3)cs2)c1`, for which the IC50 in experiment [1] (read-out: IC50) was 11.5 µM; in experiment [1] (read-out: pIC50 (converted)) it was 11.7 µM; in experiment [4], 31.6 µM. Moreover, the “Ratio IC50” value in experiment [2] is recorded as 2.8.

Regarding `Cc1cccc(Nc2nc(-c3ccnc(-c4c(C)noc4C)c3)cs2)c1`, the IC50 is 3 µM in experiment [1] (read-out: IC50), 3.02 µM in experiment [1] (read-out: pIC50 (converted)) and 36.5 µM in experiment [4]. Besides, the “Ratio IC50” value in experiment [2] turned out to be 12.

For the molecule `Cc1cccc(Nc2cncc(-c3ccncc3)n2)c1`, the IC50 in experiment [1] (read-out: IC50) was 8.5 µM; in experiment [1] (read-out: pIC50 (converted)), 8.51 µM; in experiment [4], 31.8 µM. The “Ratio IC50” value in experiment [2] came out at 3.7.
